This note sets out measurements from patent US8940911B2, “Squarylated lactones inhibitors for bacterial biofilm formation” (Syracuse University, priority 2012, dated 2015).

SMILES strings stand for the structures.

In data set [1] the test system is E. coli RP437. Briefly: Static biofilm dispersion assay (established biofilm, crystal violet). It is filed as cell-based, Escherichia coli. As to conditions: established 24 h E. coli RP437 biofilm, 200 μM, further 24 h. An excerpt:
Apart from the design and development of molecules that display bacterial biofilm inhibition, perhaps the greater challenge is to construct small molecules that will effectively disperse established biofilm. Generally, treatment of chronic microbial infections is commonly hindered by the presence of established biofilms that offer increased resistance to the entry of antibiotics and prevent their mode of action. In fact, bacteria in the biofilms are known to be greater than 1000-fold resistant to microbicides. […] E. coli RP437 strain was allowed to form biofilms over 24 h in the absence of any inhibitor. […]
An overnight culture of E. coli RP437 grown in LB media (OD600 of 1.0) containing streptomycin (10 μg/mL) was subsequently sub-cultured to an OD600 of 0.03-0.04 (1:100 dilution with LB media). […] Finally, the biofilm formed was quantified by transferring 100 μL of the ethanol solution into a fresh polystyrene microtiter dish that was subsequently read by an absorbance plate reader (A600). After elimination of background absorbance, the percentage dispersion was calculated by dividing the amount of absorbed crystal violet in wells that contained the synthetic compound by the amount of absorbed crystal violet in wells that contained bacteria only (control). […]

Data set [2] deals with SK-N-SH cells. Briefly: Human neuroblastoma cancer cell cytotoxicity assay (CCK-8). Type of data set: cell-based. As to conditions: 200 or 300 μM, 1 h exposure, read after 24 h. The procedure:
After examining the efficacy of SHLs at inhibiting biofilm, dispersing established biofilms, and reducing the maximum thickness of biofilms without being toxic to the planktonic bacterial cells, we tested the cytotoxicity of the key potent SHLs on the human neuroblastoma cancer cell line SK-N-SH. These studies were conducted such that the SK-N-SH cells were subjected to the maximum concentrations of the key potent SHLs tested on bacteria.
A previously grown T-flask of SK-N-SH cells was observed under a microscope to confirm the confluence of the cells. Next, the old media was discarded and the adherent cells were washed with ˜10 mL of MEM(−). The wash was discarded and 2 mL of Trypsin-EDTA solution was added to the T-flask and incubated for 10 minutes at 37° C. and at 5% atmosphere of CO2. Afterwards, the flask was viewed under a microscope to determine if the cells were suspended in the solution. Subsequently, ˜8 mL of MEM(+) was added to the flask and carefully mixed via pipette to break-up any large clusters of cells. 100 μL of the culture was added to an Eppendorf tube and combined with 100 μL of […]. A hemocytometer and glass cover slide was carefully cleaned with a kimwipe and ethanol. Placing the glass cover slide on top of the hemocytometer, 10 μL of the mixture in the Eppendorf tube was pipetted into the two grooves on the hemocytometer, avoiding the generation of bubbles. The hemocytometer was viewed one chamber at time under a microscope and the live cells were counted using the hemocytometer cell counting method. The remaining cell culture in the T-flask was diluted with MEM(+) to 25 mL such that there would be ˜5000 cells/mL. 100 μL of the culture was placed into wells on a 96 well plate such that one column had only MEM(+) and the wells on the outer perimeter of the plate were left empty. Four plates were made in this manner so that there would be plates for times 0, 24, 48, and 72 h. The plate was then incubated for 24 h at 37° C. and at 5% atmosphere of CO2. Subsequently, the old media was discarded and the wells were subjected to either 200 μM or 300 μM solutions of compounds 3, 4, 8, and 46 in MEM(+) (100 μL) such that one column still contained only MEM(+) and one column contained MEM(+) and untreated cells. The plate was incubated for 1 h and then the solutions were discarded and fresh MEM(+) media was added (100 μL). Each plate was then incubated for the desired time (0, 24, 48, or 72 h). After incubation, 10 μL of CCK-8 solution was added to each well and then the plate was incubated for 2 h followed by reading the OD450 with a microplate reader.

Turning to `CC1=C(Br)/C(=C/Br)OC1=O` [BF8 48, reference compound], the biofilm dispersal ability in data set [1] is reported as 39%. In the case of `CCCCOc1c(NC2CCCC2)c(=O)c1=O` [butoxy-SCPA 46], the “cytotoxicity on human neuroblastoma cancer cells (in words)” value in data set [2] was “toxic”. Turning to `C=Cc1c(NC2CCOC2=O)c(=O)c1=O` (stereo not shown) [vinyl-SHL 3], the “biofilm dispersal (in words)” value in data set [1] is listed as “a quarter of biofilm being dispersed”. For the same molecule, the “cytotoxicity on human neuroblastoma cancer cells (in words)” value in data set [2] is reported as “toxic”.
